Measured values: patent US20140011769A1, “Methods of Treating Retroviral Infections and Related Dosage Regimes” (Chimerix, Inc., priority 2012, published 2014)
Entries after “also recorded” stand apart in the source; their conditions may differ. Like-named read-outs stand apart in the source and are kept apart here.

What was measured:
infected PBMCs = test: Cell viability of infected PBMCs by trypan blue dye exclusion; assay type: cell-based, human; conditions: for toxicity as fresh compound was added to the cultures up to day 10: infected PBMC cultures; for CC50: infected PBMCs, read-out: HTLV-I TC50
Procedure: (§1) Co-Culture for HTLV-I Replication: Cell cultures were incubated at 37° C./5% CO2 for four weeks. Cell viability and density was monitored by trypan blue dye exclusion test. Cell density was readjusted to 8×10^5 cells per mL on days 3, 7, 10, 14, 21 and 28. Compound was added with the half-volume fresh medium exchange on days 3, 7, and 10. Supernatant was collected on days 14, 21 and 28 for measurement of HTLV-I virus replication by p19 Gag ELISA. Cell samples were also collected on days 14 and 28 for genomic DNA extraction and PCR analysis of HTLV-I proviral DNA. Untreated PBMCs co-cultured with MT-2 cells, PBMCs alone, and mitomycin C-treated MT-2 cells alone were cultured in parallel as controls.
(§2) Anti-HTLV-I Evaluations: HDP-TFV K^+ salt and tenofovir were evaluated for HTLV-I inhibition in human PBMCs co-cultured with mitomycin C treated MT-2 cells at four concentrations of each compound. AZT was evaluated in parallel as a control compound. […] Cell viability was monitored by trypan blue dye exclusion. AZT and tenofovir were not toxic to the infected PBMCs at concentrations up to 25 μM at 2, 3, or 4 weeks post infection.
as §2, with “Evaluations: HDP-CDV” for “Evaluations: HDP-TFV K^+ salt”, “and cidofovir” for “and tenofovir”, “AZT was” for “AZT and tenofovir were”

[1] = as above; assay type: cell-based, human; conditions: human, infected PBMCs, read-out: HTLV-I TC50; for CC50 at 2 weeks: 2 wks post infection; for CC50 at 3 weeks: 3 wks post infection; for CC50 at 4 weeks: 4 wks post infection
Procedure: as §1, §2
as §2, with “Evaluations: HDP-CDV” for “Evaluations: HDP-TFV K^+ salt”, “and cidofovir” for “and tenofovir”, “AZT was” for “AZT and tenofovir were”

HTLV-I = test: Co-culture assay for HTLV-I, virus replication by p19 Gag ELISA; assay type: cell-based; conditions: for concentration inhibiting HTLV-I replication as measured by p19 ELISA: 2 weeks; for antiviral activity: 2 weeks post infection, up to 25 μM; for EC50: read-out: HTLV-I EC50; for suppression of virus replication greater than 50% (p19 ELISA): 2 and 4 weeks co-culture; for concentration inhibiting HTLV-I virus replication from infected PBMCs: 3 weeks post-infection
Procedure: PBMC Preparation: Fresh human peripheral blood mononuclear cells (PBMCs), obtained from Biological Specialty Corporation, Bristol, Pa., were confirmed as seronegative for HIV and HBV. Depending on the volume of the donor blood received, the leukophoresed blood cells were washed several times with PBS. After washing, the leukophoresed blood was diluted 1:1 with Dulbecco's phosphate buffered saline (PBS) and layered over 15 mL of Ficoll-Hypaque density gradient in a 50 mL conical centrifuge tube. These tubes were then centrifuged for 30 min at 600 g. Banded PBMCs were gently aspirated from the resulting interface and subsequently washed three times with PBS by low speed centrifugation. After the final wash, cells were enumerated by trypan blue dye exclusion and re-suspended at 1×10^6 cells/mL in RPMI 1640 with 15% Fetal Bovine Serum (FBS), 2 mmol/L L-glutamine, 2 μg/mL phytohemagglutinin (PHA-P), 100 Units/mL penicillin and 100 μg/mL streptomycin and allowed to incubate for 48-72 hr at 37° C.
After incubation, PBMCs were centrifuged and resuspended in PBMC medium (RPMI 1640 with 15% FBS, 2 mmol/L L-glutamine, 100 U/mL penicillin, 100 μg/mL streptomycin and 20 U/mL recombinant human IL-2). The cultures were then maintained for the remainder of the experiment by exchange of half the culture volume with fresh IL-2 containing tissue culture medium every 3 days. Assays were initiated with PBMCs that had been induced to proliferate for 72 hr. Stimulated PBMCs from two donors were pooled together to minimize the variability between individual donors and 8×10^6 cells were resuspended in 9 mL of fresh tissue culture medium per T25 flask.
HDP-TFV was evaluated at concentrations of 0.04, 0.2, 1 and 10 μM. AZT and tenofovir were evaluated at concentrations of 0.1, 1, 5 and 25 μM. HDP-TFV, AZT, or tenofovir were added to the PBMCs 10 hours prior to infection.
MT-2 Preparation: MT-2 cells were obtained from the NIH AIDS Research and Reference Reagent Program and passaged in T-75 flasks in RPMI 1640 medium, supplemented with 10% heat inactivated fetal bovine serum, 2 mmol/L L-glutamine, 100 U/ml penicillin and 100 μg/ml streptomycin. Total cell and viability quantification were performed using hemocytometer and trypan blue dye exclusion. The cells were incubated in 10 mL of 200 μg/mL mitomycin C for 1 hour at 37° C./5% CO2, washed 3 times in Dulbecco's phosphate buffered saline (DPBS), and resuspended in PBMC medium at 1.6×10^6 cells per mL. One mL of treated MT-2 cells was added to each T25 flask, except for the PBMC only control.
as §1
HTLV-I p19 Gag ELISA: ELISA was performed to quantify p19 in cell-free supernatants according to the manufacturer's instructions (ZeptoMetrix, Buffalo, N.Y.). Briefly, 50 μL of the kit p19 standard was added to 950 μL assay diluent in microtiter tubes and serially diluted 1:2. After washing the microtiter plate with 1× plate wash buffer, 200 μL of the diluted standards were added in duplicate to the coated wells. In duplicate, 200 μL of media was added as negative controls. Cell culture supernatants were diluted 1:9 with media and mixed with 50 μL of lysis buffer in duplicate. Two hundred microliters of diluted sample was added to the coated wells and incubated at 37° C. for 2 hours. […]

[2] = concentrations up to 25 μM at 2, 3, or 4 weeks post infection
[3] = Primate T-lymphotropic virus 1, MT2, 336 h, 2 wks post infection, human PBMCs co-cultured with mitomycin C treated MT-2 cells
[4] = Primate T-lymphotropic virus 1, MT2, 504 h, 3 wks post infection, human PBMCs co-cultured with mitomycin C treated MT-2 cells
[5] = Primate T-lymphotropic virus 1, MT2, 672 h, 4 wks post infection, human PBMCs co-cultured with mitomycin C treated MT-2 cells

| Compound | toxicity to the infected PBMCs (infected PBMCs; [2]) | CC50 at 2 weeks [1] | CC50 at 3 weeks [1] | CC50 at 4 weeks [1] | concentration inhibiting HTLV-I replication as measured by p19 ELISA (HTLV-I) | antiviral activity (HTLV-I) | EC50 (HTLV-I; [3]) | EC50 (HTLV-I; [4]) | EC50 (HTLV-I; [5]) | suppression of virus replication greater than 50% (p19 ELISA) (HTLV-I) | concentration inhibiting HTLV-I virus replication from infected PBMCs (HTLV-I) | toxicity as fresh compound was added to the cultures up to day 10 (infected PBMCs) | further results |
| --- | --- | --- | --- | --- | --- | --- | --- | --- | --- | --- | --- | --- | --- |
| Cc1cn([C@H]2C[C@H](N=[N+]=[N-])[C@@H](CO)O2)c(=O)[nH]c1=O [AZT, 3′-azido-2′,3′-dideoxythymidine] | not toxic | > 25 µM | > 25 µM | > 25 µM | above 3 μM | no antiviral activity | > 25 µM | 3.2 µM | 2.6 µM | – | – | – | – |
| Nc1ccn(C[C@@H](CO)OCP(=O)(O)O)c(=O)n1 [Cidofovir, (S)-9-(3-hydroxy-2-phosphonylmethoxypropyl)cytosine] | – | > 100 µM | > 100 µM | 80 µM | – | – | > 100 µM | 87.8 µM | > 100 µM | did not suppress | 100 µM | – | toxicity to the infected PBMCs (infected PBMCs; 100 μM, following 4 weeks in culture): slightly toxic; suppression of virus replication greater than 50% (p19 ELISA) (HTLV-I; listed as cidofovir): not reached |
| CCCCCCCCCCCCCCCCOCCCOP(=O)(O)CO[C@H](CO)Cn1ccc(N)nc1=O [HDP-CDV, hexadecyloxypropyl cidofovir] | – | 7.5 µM | 3.2 µM | 1.4 µM | – | – | > 10 µM | 0.4 µM | > 10 µM | did not suppress; also recorded: not reached | above 3 μM | increasingly toxic | concentration showing moderate antiviral activity (HTLV-I; four weeks of infected PBMC culture, inhibition may be attributed to observed toxicity): ≥ 0.2 µM |
| CCCCCCCCCCCCCCCCOCCCOP(=O)(O)CO[C@H](C)Cn1cnc2c(N)ncnc21 [HDP-TFV, 3-(hexadecyloxy)propyl hydrogen ((R)-1-(6-amino-9H-purin 9-yl)propan-2-yloxy)methylphosphonate] | – | > 10 µM | 6.3 µM | 1 µM | above 7 μM | – | – | – | – | – | – | increasingly toxic | EC50 (HTLV-I; Primate T-lymphotropic virus 1, MT2, 336 h): 6.8 µM; EC50 (HTLV-I; Primate T-lymphotropic virus 1, MT2, 504 h): 0.9 µM; EC50 (HTLV-I; Primate T-lymphotropic virus 1, MT2, 672 h): 0.2 µM |
| C[C@H](Cn1cnc2c(N)ncnc21)OCP(=O)(O)O [Tenofovir, (R)-9-(2-phosphonylmethoxypropyl)adenine] | not toxic | – | – | – | – | no antiviral activity | – | – | – | – | – | – | CC50 (infected PBMCs; 2 wks post infection): > 25 µM; CC50 (infected PBMCs; 3 wks post infection): > 25 µM; CC50 (infected PBMCs; 4 wks post infection): > 25 µM; EC50 (HTLV-I; 2 wks post infection, human PBMCs co-cultured with mitomycin C treated MT-2 cells): > 25 µM; EC50 (HTLV-I; 3 wks post infection, human PBMCs co-cultured with mitomycin C treated MT-2 cells): 10.3 µM; EC50 (HTLV-I; 4 wks post infection, human PBMCs co-cultured with mitomycin C treated MT-2 cells): 4.5 µM |
